According to PMC8972196, “A Set of Experimentally Validated Decoys for the Human CC Chemokine Receptor 7 (CCR7) Obtained by Virtual Screening” (Frontiers in Pharmacology, 2022):
pIC50: −log10 of the molar value. Like-named read-outs stand apart in the source and are kept apart here.

Molecular target: T1, human CCR7 (Homo sapiens, UniProt P32248)
T1 construct: expressed in transfected cells
T1 sequence (P32248 25-378): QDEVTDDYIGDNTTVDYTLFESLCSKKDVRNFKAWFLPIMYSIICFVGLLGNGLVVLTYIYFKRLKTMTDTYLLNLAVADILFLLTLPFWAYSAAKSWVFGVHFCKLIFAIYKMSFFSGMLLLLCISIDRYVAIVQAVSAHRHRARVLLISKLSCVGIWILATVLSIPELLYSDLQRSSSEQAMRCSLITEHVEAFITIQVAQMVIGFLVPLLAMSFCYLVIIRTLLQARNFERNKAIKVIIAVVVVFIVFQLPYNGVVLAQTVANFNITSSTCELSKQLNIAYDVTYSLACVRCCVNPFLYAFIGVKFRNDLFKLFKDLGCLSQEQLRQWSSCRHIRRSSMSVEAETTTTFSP
Test: CCL19-induced calcium mobilization assay, U87.CD4 cells expressing CCR7
Assay type: cell-based
Settings: for IC50: read-out: IC50 [μM] block CCL19 induced calcium signaling
Summary of the method: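 U87.CD4 cells stably expressing human CCR7, CXCR2 or CCR5 were seeded at 20,000 cells/well and incubated overnight at 37°C and 5% CO2. Cells were then incubated for 45 min at room temperature in the dark before calcium responses were recorded. CCR7 responses were induced with CCL19 and CXCR2 responses with CXCL8.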

[1] = CCL19 induced calcium signaling
[2] = classification as decoy or active on CCR7
[3] = CCL19-induced calcium signaling
[4] = classification of tested compounds as decoy or active

| SMILES | IC50 [1] [µM] | Decoy – 0 Active – 1 [2] | IC50 [3] [µM] | Decoy – 0 Active – 1 [4] | pIC50 |
| --- | --- | --- | --- | --- | --- |
| Cn1cc(C2CN(S(=O)(=O)c3ccc4c(c3)CCCC4)CC2CO)cn1 (stereo not drawn) [C269, Cn1cc(cn1)C2CN(CC2CO)S(=O)(=O)c3ccc4c(c3)CCCC4] | > 50 | 0 |  |  |  |
| O=C(Nc1ccc(Cl)cc1Cl)NC(Cc1ccc(O)cc1)C(=O)O (stereo not drawn) [C184, O=C(Nc1ccc(Cl)cc1Cl)NC(Cc1ccc(O)cc1)C(=O)[O-]] | > 50 | 0 |  |  |  |
| O=C1CCCc2[nH]c(=O)c(C(=O)NC3CCc4cc(F)ccc43)cc21 (stereo not drawn) [C286, O=C1CCCc2[nH]c(=O)c(C(=O)NC3CCc4cc(F)ccc43)cc21] | > 50 | 0 |  |  |  |
| O=C(NC1CC(C(=O)O)c2ccccc21)C1CCCN(C(=O)N2CCCC2)C1 (stereo not drawn) [C197, O=C(NC1CC(C(=O)[O-])c2ccccc21)C1CCCN(C(=O)N2CCCC2)C1] | > 50 | 0 |  |  |  |
| COc1cccc(N(CC(=O)N2CCC(C(N)=O)CC2)S(=O)(=O)c2ccc(C)cc2)c1 [C253, Cc1ccc(cc1)S(=O)(=O)N(CC(=O)N2CCC(CC2)C(=O)N)c3cccc(c3)OC] | > 50 | 0 |  |  |  |
| Cc1ccc(NC(=O)CN(C)C[C@@H]2CCCO2)cc1[N+](=O)[O-] [C106, Cc1ccc(NC(=O)C[N@@H+](C)C[C@@H]2CCCO2)cc1[N+](=O)[O-]] |  |  | > 50 | 0 |  |
| CC1CN(C(=O)C(C)N2CCC(NS(=O)(=O)c3ccccc3)CC2)CC(C)O1 (stereo not drawn) [C272, CC1CN(CC(O1)C)C(=O)C(C)[NH+]2CCC(CC2)NS(=O)(=O)c3ccccc3] | > 50 | 0 |  |  |  |
| O=C(O)CN1C(=O)NC2(CCCc3ccccc32)C1=O (stereo not drawn) [C199, O=C([O-])CN1C(=O)NC2(CCCc3ccccc32)C1=O] | > 50 | 0 |  |  |  |
| Cc1ccccc1NC(=O)c1c(O)nc2ccccc2c1O [C170, Cc1ccccc1NC(=O)c1c(O)nc2ccccc2c1O] | > 50 | 0 |  |  |  |
| CC1CCc2c(F)cccc2C1NC(=O)c1n[nH]c(=O)[nH]1 (stereo not drawn) [C222, CC1CCc2c(F)cccc2C1NC(=O)c1n[nH]c(=O)[nH]1] | > 50 | 0 |  |  |  |
| Cc1ccc(S(=O)(=O)NC(C)C(c2ccccc2)N2CCOCC2)cc1 (stereo not drawn) [C264, Cc1ccc(cc1)S(=O)(=O)NC(C)C(c2ccccc2)[NH+]3CCOCC3] |  | 0 |  |  | < 4.30 |
| C[C@@H](CNC(=O)N[C@H]1CCO[C@@H](C2CC2)C1)c1ccsc1 [C109, C[C@@H](CNC(=O)N[C@H]1CCO[C@@H](C2CC2)C1)c1ccsc1] |  |  | > 50 | 0 |  |
| NC(=O)c1cc(NCC(=O)NCc2ccco2)ccc1Cl [C067, NC(=O)c1cc(NCC(=O)NCc2ccco2)ccc1Cl] |  |  | > 10 | 0 |  |
| O=S(=O)(c1cccc(F)c1)N1CC(c2cccnc2)C(c2nc(C3CCCC3)no2)C1 (stereo not drawn) [C246, c1cc(cc(c1)S(=O)(=O)N2CC(C(C2)c3nc(no3)C4CCCC4)c5cccnc5)F] | > 50 | 0 |  |  |  |
| Cc1cccc(-c2cccc(C(=O)N3CC(O)CC3C(=O)O)c2)c1 (stereo not drawn) [C187, Cc1cccc(-c2cccc(C(=O)N3CC(O)CC3C(=O)[O-])c2)c1] | > 50 | 0 |  |  |  |
| CC(=O)Nc1cccc(NCC(=O)N(Cc2ccc(C)o2)C2CC2)c1 [C054, CC(=O)Nc1cccc(NCC(=O)N(Cc2ccc(C)o2)C2CC2)c1] |  |  | > 10 | 0 |  |
| O=C(NC1CCC(C(=O)N2CCCCC2)C1)NC1C2Cc3cc(F)ccc3C21 (stereo not drawn) [C227, O=C(NC1CCC(C(=O)N2CCCCC2)C1)NC1C2Cc3cc(F)ccc3C21] | > 50 | 0 |  |  |  |
| O=S(=O)(NC(c1cccnc1)C1CCOCC1)c1ccc2c(c1)CCO2 (stereo not drawn) [C256, c1cc(cnc1)C(C2CCOCC2)NS(=O)(=O)c3ccc4c(c3)CCO4] | > 50 | 0 |  |  |  |
| COc1ccc(S(=O)(=O)Nc2ccccc2C(=O)N2CCOCC2)cc1C [C260, Cc1cc(ccc1OC)S(=O)(=O)Nc2ccccc2C(=O)N3CCOCC3] | > 50 | 0 |  |  |  |
| Cc1ccc(NC2=NC(=O)SC2=Cc2ccco2)cc1 [C078, Cc1ccc(NC2=[NH+]C(=O)SC2=Cc2ccco2)cc1] |  |  | > 10 | 0 |  |
| CC[C@@H](NC(=O)N1CCN(C(=O)c2ccccc2)CC1)c1cccc(C)n1 [C161, CC[C@@H](NC(=O)N1CCN(C(=O)c2ccccc2)CC1)c1cccc(C)n1] | > 50 | 0 |  |  |  |
| Cc1cccc(C)c1NC(=O)c1cc(S(N)(=O)=O)c(Cl)cc1O [C179, Cc1cccc(C)c1NC(=O)c1cc(S(N)(=O)=O)c(Cl)cc1O] | > 50 | 0 |  |  |  |
| O=C(NCc1cccnc1)c1ccccc1NS(=O)(=O)c1ccc2c(c1)OCCO2 [C239, c1ccc(c(c1)C(=O)NCc2cccnc2)NS(=O)(=O)c3ccc4c(c3)OCCO4] | > 50 | 0 |  |  |  |
| COc1cccc(N2CC(NC(=O)c3cccc4ccccc34)CC2=O)c1 (stereo not drawn) [C188, COc1cccc(N2CC(NC(=O)c3cccc4ccccc34)CC2=O)c1] | > 50 | 0 |  |  |  |
| Cc1ccc(N[C@H]2CS(=O)(=O)C[C@H]2OC(=O)c2ccccc2)cc1 [C120, Cc1ccc(N[C@H]2CS(=O)(=O)C[C@H]2OC(=O)c2ccccc2)cc1] |  |  | > 50 | 0 |  |
| CC1(C)CC(NC(=O)c2cc(O)c3ccccc3c2)C(C)(C)O1 (stereo not drawn) [C178, CC1(C)CC(NC(=O)c2cc(O)c3ccccc3c2)C(C)(C)O1] | > 50 | 0 |  |  |  |
| Cc1ccc(S(=O)(=O)N(CC(O)CN2CCCCC2)c2ccccc2)cc1 (stereo not drawn) [C244, Cc1ccc(cc1)S(=O)(=O)N(CC(C[NH+]2CCCCC2)O)c3ccccc3] | > 50 | 0 |  |  |  |
| FC(F)(F)c1ccccc1NC(=S)Nc1ccc(OCc2ccccc2)cc1 [C035, FC(F)(F)c1ccccc1NC(=S)Nc1ccc(OCc2ccccc2)cc1] |  |  | > 30 | 0 |  |

More lines, main results first:

| IC50 [1] [µM] | Decoy – 0 Active – 1 [2] | IC50 [3] [µM] | Decoy – 0 Active – 1 [4] | SMILES | pIC50 |
| --- | --- | --- | --- | --- | --- |
| > 50 | 0 |  |  | O=C(O)c1nc[nH]c1C(=O)NC(c1ccccc1)c1ccco1 (stereo not drawn) [C190, O=C([O-])c1nc[nH]c1C(=O)NC(c1ccccc1)c1ccco1] |  |
| > 50 | 0 |  |  | Cc1nccn1-c1ccccc1CNC(=O)CC1NC(=O)c2ccccc21 (stereo not drawn) [C223, Cc1nccn1-c1ccccc1CNC(=O)CC1NC(=O)c2ccccc21] |  |
|  |  | > 10 | 0 | CN(C)C(=O)c1cc(NCC(=O)NCc2ccco2)ccc1F [C064, CN(C)C(=O)c1cc(NCC(=O)NCc2ccco2)ccc1F] |  |
| > 50 | 0 |  |  | CC(=O)N1CCCCC1CC(=O)NC1(C)CCc2ccccc2C1 (stereo not drawn) [C193, CC(=O)N1CCCCC1CC(=O)NC1(C)CCc2ccccc2C1] |  |
|  |  | > 10 | 0 | CN(C)C(=O)c1ccc(Cl)c(NCC(=O)N(C)Cc2ccco2)c1 [C061, CN(C)C(=O)c1ccc(Cl)c(NCC(=O)N(C)Cc2ccco2)c1] |  |
|  |  | > 10 | 0 | CCNC(=O)CNc1ccc(C)c(C(=O)N(C)C)c1 [C072, CCNC(=O)CNc1ccc(C)c(C(=O)N(C)C)c1] |  |
|  |  | > 10 | 0 | CC1CCCCN1C(=O)CNc1ccc(Cl)c(C(=O)N(C)C)c1 (stereo not drawn) [C073, CC1CCCCN1C(=O)CNc1ccc(Cl)c(C(=O)N(C)C)c1] |  |
| > 50 | 0 |  |  | Cn1c(C2CC(=O)N(c3cccc(C(F)(F)F)c3)C2)nc2ccccc21 (stereo not drawn) [C194, Cn1c(C2CC(=O)N(c3cccc(C(F)(F)F)c3)C2)nc2ccccc21] |  |
|  |  | > 50 | 0 | COc1ccc([N+](=O)[O-])c(C(=O)N[C@@H](c2ncccc2C)C(C)C)c1 [C135, COc1ccc([N+](=O)[O-])c(C(=O)N[C@@H](c2ncccc2C)C(C)C)c1] |  |
| > 50 | 0 |  |  | O=C(Nc1ccc(Cl)cc1Cl)N1CC(O)C(F)C1 (stereo not drawn) [C183, O=C(Nc1ccc(Cl)cc1Cl)N1CC(O)C(F)C1] |  |
|  |  | > 50 | 0 | Cc1ocnc1C(=O)N[C@@H]1CC(=O)N(Cc2ccc(F)cc2)C1 [C139, Cc1ocnc1C(=O)N[C@@H]1CC(=O)N(Cc2ccc(F)cc2)C1] |  |
|  |  | > 10 | 0 | CN(C)CC(C)(C)CNC(=O)C(=O)Nc1cccc(C(=O)N(C)C)c1 [C070, CN(C)C(=O)c1cccc(NC(=O)C(=O)NCC(C)(C)C[NH+](C)C)c1] |  |
|  |  | > 50 | 0 | O=S1(=O)N=C(NCc2ccccn2)c2ccccc21 [C149, O=S1(=O)N=C(NCc2ccccn2)c2ccccc21] |  |
|  |  | > 50 | 0 | CC(C)[C@@H](Nc1nccc(CCC(F)(F)F)n1)c1nccn1C [C146, CC(C)[C@@H](Nc1nccc(CCC(F)(F)F)n1)c1nccn1C] |  |
| > 50 | 0 |  |  | O=C(NCC(O)(c1ccccc1)C(F)(F)F)c1cc(=O)c2ccccc2o1 (stereo not drawn) [C208, O=C(NCC(O)(c1ccccc1)C(F)(F)F)c1cc(=O)c2ccccc2o1] |  |
|  |  | > 50 | 0 | CN(C)C(=O)c1cccc(CN2CCC[C@@H]2C[C@H](O)c2cnn(C)c2)c1 [C110, CN(C)C(=O)c1cccc(C[N@@H+]2CCC[C@@H]2C[C@H](O)c2cnn(C)c2)c1] |  |
| > 50 | 0 |  |  | CCCC1(C(=O)O)CCN(C(=O)c2cccc(C)c2OC)CC1O (stereo not drawn) [C207, CCCC1(C(=O)[O-])CCN(C(=O)c2cccc(C)c2OC)CC1O] |  |
